# Data published in patent US20240279159A1, “HERBICIDAL ARYLCYCLOPENTENE CARBOXAMIDES” (BASF SE, priority 2021, published 2024).
# What was measured:
# ALOMY = test: greenhouse herbicidal test, post-emergence treatment; type: in vivo, Alopercurus myosuroides; settings: post-emergence method, scale from 0 to 100
# Text: (§1) The culture containers used were plastic flowerpots containing loamy sand with approximately 3.0% of humus as the substrate. The seeds of the test plants were sown separately for each species.
# (§2) For the pre-emergence treatment, the active ingredients, which had been suspended or emulsified in water, were applied directly after sowing by means of finely distributing nozzles. The containers were irrigated gently to promote germination and growth and subsequently covered with transparent plastic hoods until the test plants had rooted. This cover caused uniform germination of the test plants, unless this had been impaired by the active ingredients. For the post-emergence treatment, the test plants were first grown to a height of 3 to 15 cm, depending on the plant habit, and only then treated with the active ingredients which had been suspended or emulsified in water. For this purpose, the test plants were either sown directly and grown in the same containers, or they were first grown separately as seedlings and transplanted into the test containers a few days prior to treatment.
# (§3) Depending on the species, the test plants were kept at 10-25° C. or 20-35° C., respectively. The test period extended over 2 to 4 weeks. During this time, the test plants were tended, and their response to the individual treatments was evaluated.
# Evaluation was carried out using a scale from 0 to 100. 100 means no emergence of the test plants, or complete destruction of at least the aerial moieties, and 0 means no damage, or normal course of growth. A good herbicidal activity is given at values of 60 to 90 and a very good herbicidal activity is given at values of 90 to 100.
# The test plants used in the greenhouse experiments were of the following species: […]
# AMARE [1] = test: greenhouse herbicidal test, pre-emergence treatment; type: in vivo, Amaranthus retroflexus; settings: pre-emergence method, application rate 0.250 kg/ha; scale from 0 to 100
# Text: as §1, §2, §3
# (§4) Evaluation was carried out using a scale from 0 to 100. […]
# SETFA = test: as above; type: in vivo, Setaria faberi; settings: pre-emergence method, application rate 1,000 kg/ha; scale from 0 to 100
# Text: as §1, §2, §3, §4
# ECHCG [2] = test: as above; type: in vivo, Echinocloa crus-galli; settings: pre-emergence method, application rate 1,000 kg/ha; scale from 0 to 100
# Text: as §1, §2, §3, §4
# AMARE [3] = test: greenhouse herbicidal test, post-emergence treatment; type: in vivo, Amaranthus retroflexus; settings: post-emergence method, scale from 0 to 100
# Text: as §1, §2, §3, §4
# ABUTH = test: as above; type: in vivo, Abutilon theophrasti; settings: post-emergence method, application rate 0.250 kg/ha; scale from 0 to 100
# Text: as §1, §2, §3, §4
# ECHCG [4] = test: as above; type: in vivo, Echinocloa crus-galli; settings: post-emergence method, application rate 0.250 kg/ha; scale from 0 to 100
# Text: as §1, §2, §3, §4
structure (smiles),measurement,setting,value
COC(=O)[C@@H]1C=C[C@H](NC(=O)C2(C)CC(c3cc(Cl)cc(Cl)c3)=CO2)C1 (relative stereo) [I6],herbicidal activity against ALOMY,ALOMY; application rate 0.250 kg/ha,very good (a very good herbicidal activity is given at values of 90 to 100)
COC(=O)[C@@H]1C=C[C@H](NC(=O)C2(C(F)(F)F)CC(c3cc(F)cc(F)c3)=CO2)C1 (relative stereo) [I8],herbicidal activity against AMARE,AMARE [1],good (A good herbicidal activity is given at values of 60 to 90)
"COC(=O)C[C@H](C)NC(=O)C1(C)CC(c2cc(F)cc(F)c2)=CO1 (single isomer, unassigned) [I1]",herbicidal activity against ALOMY,ALOMY; application rate 1.000 kg/ha,very good (a very good herbicidal activity is given at values of 90 to 100)
"COC(=O)C[C@H](C)NC(=O)C1(C)CC(c2cc(F)cc(F)c2)=CO1 (single isomer, unassigned) [I2]",herbicidal activity against SETFA,SETFA,good (A good herbicidal activity is given at values of 60 to 90)
same,herbicidal activity against ECHCG,ECHCG [2],good (A good herbicidal activity is given at values of 60 to 90)
same,herbicidal activity against ALOMY,ALOMY; application rate 1.000 kg/ha,good (A good herbicidal activity is given at values of 60 to 90)
"COC(=O)C[C@H](C)NC(=O)C1(C)CC(c2cc(Cl)cc(Cl)c2)=CO1 (single isomer, unassigned) [I3]",herbicidal activity against AMARE,AMARE [3]; application rate 1.000 kg/ha,very good (a very good herbicidal activity is given at values of 90 to 100)
COC(=O)C1CCC(NC(=O)C2(C)CC(c3cc(Cl)cc(Cl)c3)=CO2)C1 (stereo not shown) [I14],herbicidal activity against AMARE,AMARE [3]; application rate 0.250 kg/ha,good (A good herbicidal activity is given at values of 60 to 90)
same,herbicidal activity against ABUTH,ABUTH,good (A good herbicidal activity is given at values of 60 to 90)
"COC(=O)[C@@H]1C=C[C@H](NC(=O)C2(C)CC=C(c3cc(F)cc(F)c3)C2=O)C1 (stereo partly drawn) [I111, methyl (1S,4R)-4-[[3-(3,5-difluorophenyl)-1-methyl-2-oxo-cyclopent-3-ene-1-carbonyl]amino]cyclopent-2-ene-1-carboxylate]",herbicidal activity against ECHCG,ECHCG [4],good (A good herbicidal activity is given at values of 60 to 90)
